# Where two headings read alike, the source gives them in different places.
# Experiments:
# Assay in all cases: HotSpot kinase profiling
# Format in all cases: biochemical
# HPK1/MAP4K1 = biological target: T1, HPK1/MAP4K1 (Homo sapiens, UniProt Q92918)
# T1 construct: purchased Reaction Biology Corp
# Summary of the method: (§1)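 Radio-isotope P81 filtration format. Substrate + required cofactors in reaction buffer, kinase added, 2 h RT. Stop, wash with 0.1% phosphoric acid, detect. % inhibition vs DMSO; mean of duplicates where repeated.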
# GSK3b = biological target: T2, GSK3b (Homo sapiens, UniProt P49841)
# T2 construct: purchased Reaction Biology Corp
# T2 sequence (P49841 whole entry): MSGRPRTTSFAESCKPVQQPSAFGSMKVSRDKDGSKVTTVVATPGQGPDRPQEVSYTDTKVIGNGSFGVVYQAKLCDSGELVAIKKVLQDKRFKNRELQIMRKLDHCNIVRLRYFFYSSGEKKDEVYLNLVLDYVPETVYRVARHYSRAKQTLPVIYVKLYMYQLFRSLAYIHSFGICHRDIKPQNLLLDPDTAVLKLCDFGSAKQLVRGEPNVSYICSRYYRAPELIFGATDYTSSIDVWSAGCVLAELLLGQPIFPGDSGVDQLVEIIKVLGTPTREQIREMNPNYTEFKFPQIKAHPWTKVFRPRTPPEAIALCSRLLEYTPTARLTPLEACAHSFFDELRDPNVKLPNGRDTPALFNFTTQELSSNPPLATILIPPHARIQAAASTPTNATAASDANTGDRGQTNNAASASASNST
# Summary of the method: as §1
# CDK4/cyclin D3 = biological target: T3, CDK4/cyclin D3 (Homo sapiens, UniProt P11802)
# T3 construct: purchased Reaction Biology Corp
# T3 sequence (P11802 whole entry): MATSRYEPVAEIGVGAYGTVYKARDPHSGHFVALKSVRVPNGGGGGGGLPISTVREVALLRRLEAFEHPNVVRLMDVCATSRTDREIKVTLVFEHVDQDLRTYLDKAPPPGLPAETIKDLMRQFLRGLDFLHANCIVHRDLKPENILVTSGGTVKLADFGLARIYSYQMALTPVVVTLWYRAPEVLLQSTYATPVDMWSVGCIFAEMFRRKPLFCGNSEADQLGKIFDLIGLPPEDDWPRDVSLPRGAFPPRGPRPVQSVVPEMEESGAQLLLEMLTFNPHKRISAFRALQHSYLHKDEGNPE
# T3 sequence (P30281 whole entry partner): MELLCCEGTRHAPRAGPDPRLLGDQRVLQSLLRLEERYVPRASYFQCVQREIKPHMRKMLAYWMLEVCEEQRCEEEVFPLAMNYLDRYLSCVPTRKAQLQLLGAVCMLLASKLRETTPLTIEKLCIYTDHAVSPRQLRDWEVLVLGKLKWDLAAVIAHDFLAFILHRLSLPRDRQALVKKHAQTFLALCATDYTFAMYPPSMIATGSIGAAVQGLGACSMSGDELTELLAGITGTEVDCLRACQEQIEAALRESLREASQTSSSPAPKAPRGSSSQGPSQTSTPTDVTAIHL
# Summary of the method: as §1
# DLK/MAP3K12 = biological target: T4, DLK/MAP3K12 (Homo sapiens, UniProt Q12852)
# T4 construct: purchased Reaction Biology Corp
# T4 sequence (Q12852 1-859): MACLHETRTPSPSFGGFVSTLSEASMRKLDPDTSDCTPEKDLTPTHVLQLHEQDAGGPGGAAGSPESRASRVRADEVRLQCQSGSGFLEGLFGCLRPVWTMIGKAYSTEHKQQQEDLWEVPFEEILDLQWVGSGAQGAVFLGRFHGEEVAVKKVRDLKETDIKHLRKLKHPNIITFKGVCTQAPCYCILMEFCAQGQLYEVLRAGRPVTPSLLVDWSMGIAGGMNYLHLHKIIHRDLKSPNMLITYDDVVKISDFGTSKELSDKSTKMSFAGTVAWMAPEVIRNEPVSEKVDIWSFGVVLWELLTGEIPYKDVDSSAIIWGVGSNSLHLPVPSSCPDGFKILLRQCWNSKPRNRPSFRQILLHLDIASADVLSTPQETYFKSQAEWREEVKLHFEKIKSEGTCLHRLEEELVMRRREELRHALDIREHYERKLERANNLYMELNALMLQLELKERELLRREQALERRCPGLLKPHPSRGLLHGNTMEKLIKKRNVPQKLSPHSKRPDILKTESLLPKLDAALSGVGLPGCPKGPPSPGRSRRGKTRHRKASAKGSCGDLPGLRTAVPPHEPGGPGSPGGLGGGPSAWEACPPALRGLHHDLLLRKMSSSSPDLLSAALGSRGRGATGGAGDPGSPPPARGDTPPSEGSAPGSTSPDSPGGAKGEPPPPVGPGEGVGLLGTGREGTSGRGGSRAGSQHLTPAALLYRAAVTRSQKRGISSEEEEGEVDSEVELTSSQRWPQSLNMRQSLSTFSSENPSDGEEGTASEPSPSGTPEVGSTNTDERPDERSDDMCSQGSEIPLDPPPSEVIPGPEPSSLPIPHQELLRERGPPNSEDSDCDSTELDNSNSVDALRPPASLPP
# Summary of the method: as §1
# STK32C/YANK3 = biological target: T5, STK32C/YANK3 (Homo sapiens, UniProt Q86UX6)
# T5 construct: purchased Reaction Biology Corp
# T5 sequence (Q86UX6 whole entry): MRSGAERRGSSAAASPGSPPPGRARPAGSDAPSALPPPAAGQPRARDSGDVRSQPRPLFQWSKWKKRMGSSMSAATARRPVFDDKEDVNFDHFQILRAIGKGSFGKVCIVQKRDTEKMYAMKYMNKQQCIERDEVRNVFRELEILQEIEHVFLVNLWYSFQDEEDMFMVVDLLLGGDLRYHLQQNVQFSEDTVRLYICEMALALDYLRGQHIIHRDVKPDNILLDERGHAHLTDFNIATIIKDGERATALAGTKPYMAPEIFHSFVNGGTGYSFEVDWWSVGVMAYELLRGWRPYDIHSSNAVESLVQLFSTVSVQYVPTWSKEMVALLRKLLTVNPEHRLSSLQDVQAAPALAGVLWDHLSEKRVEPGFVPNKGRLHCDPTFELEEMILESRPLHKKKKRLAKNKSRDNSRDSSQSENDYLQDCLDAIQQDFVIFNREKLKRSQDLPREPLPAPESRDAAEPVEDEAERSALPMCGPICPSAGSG
# Summary of the method: as §1
# EPHB1 = biological target: T6, EPHB1 (Homo sapiens, UniProt P54762)
# T6 construct: purchased Reaction Biology Corp
# T6 sequence (P54762 18-984): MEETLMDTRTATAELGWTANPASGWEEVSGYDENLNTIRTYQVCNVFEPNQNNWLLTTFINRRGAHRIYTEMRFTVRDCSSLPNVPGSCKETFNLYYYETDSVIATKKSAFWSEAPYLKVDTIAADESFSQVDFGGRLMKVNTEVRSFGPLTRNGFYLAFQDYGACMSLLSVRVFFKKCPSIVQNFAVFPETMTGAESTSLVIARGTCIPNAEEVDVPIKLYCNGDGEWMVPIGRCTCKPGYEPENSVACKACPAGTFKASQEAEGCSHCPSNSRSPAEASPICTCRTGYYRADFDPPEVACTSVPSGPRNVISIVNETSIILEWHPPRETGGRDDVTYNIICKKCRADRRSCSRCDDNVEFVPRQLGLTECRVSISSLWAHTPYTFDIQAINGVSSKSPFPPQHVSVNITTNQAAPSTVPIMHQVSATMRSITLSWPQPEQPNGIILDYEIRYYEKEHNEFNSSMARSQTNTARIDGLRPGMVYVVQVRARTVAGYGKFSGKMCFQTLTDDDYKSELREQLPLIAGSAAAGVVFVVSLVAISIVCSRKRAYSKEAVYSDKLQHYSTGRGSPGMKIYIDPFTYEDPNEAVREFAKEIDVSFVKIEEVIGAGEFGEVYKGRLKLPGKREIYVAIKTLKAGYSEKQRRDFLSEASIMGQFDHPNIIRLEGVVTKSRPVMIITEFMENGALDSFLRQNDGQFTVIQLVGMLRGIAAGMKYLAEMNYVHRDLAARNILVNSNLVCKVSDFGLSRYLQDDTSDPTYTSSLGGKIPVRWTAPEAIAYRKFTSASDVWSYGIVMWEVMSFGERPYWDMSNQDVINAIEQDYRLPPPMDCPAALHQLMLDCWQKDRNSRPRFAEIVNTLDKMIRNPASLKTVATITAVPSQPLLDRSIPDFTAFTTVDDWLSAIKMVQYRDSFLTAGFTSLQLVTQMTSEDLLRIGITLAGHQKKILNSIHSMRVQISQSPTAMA
# Summary of the method: as §1
# MINK/MINK1 = biological target: T7, MINK/MINK1 (Homo sapiens, UniProt Q8N4C8)
# T7 construct: purchased Reaction Biology Corp
# T7 sequence (Q8N4C8 whole entry): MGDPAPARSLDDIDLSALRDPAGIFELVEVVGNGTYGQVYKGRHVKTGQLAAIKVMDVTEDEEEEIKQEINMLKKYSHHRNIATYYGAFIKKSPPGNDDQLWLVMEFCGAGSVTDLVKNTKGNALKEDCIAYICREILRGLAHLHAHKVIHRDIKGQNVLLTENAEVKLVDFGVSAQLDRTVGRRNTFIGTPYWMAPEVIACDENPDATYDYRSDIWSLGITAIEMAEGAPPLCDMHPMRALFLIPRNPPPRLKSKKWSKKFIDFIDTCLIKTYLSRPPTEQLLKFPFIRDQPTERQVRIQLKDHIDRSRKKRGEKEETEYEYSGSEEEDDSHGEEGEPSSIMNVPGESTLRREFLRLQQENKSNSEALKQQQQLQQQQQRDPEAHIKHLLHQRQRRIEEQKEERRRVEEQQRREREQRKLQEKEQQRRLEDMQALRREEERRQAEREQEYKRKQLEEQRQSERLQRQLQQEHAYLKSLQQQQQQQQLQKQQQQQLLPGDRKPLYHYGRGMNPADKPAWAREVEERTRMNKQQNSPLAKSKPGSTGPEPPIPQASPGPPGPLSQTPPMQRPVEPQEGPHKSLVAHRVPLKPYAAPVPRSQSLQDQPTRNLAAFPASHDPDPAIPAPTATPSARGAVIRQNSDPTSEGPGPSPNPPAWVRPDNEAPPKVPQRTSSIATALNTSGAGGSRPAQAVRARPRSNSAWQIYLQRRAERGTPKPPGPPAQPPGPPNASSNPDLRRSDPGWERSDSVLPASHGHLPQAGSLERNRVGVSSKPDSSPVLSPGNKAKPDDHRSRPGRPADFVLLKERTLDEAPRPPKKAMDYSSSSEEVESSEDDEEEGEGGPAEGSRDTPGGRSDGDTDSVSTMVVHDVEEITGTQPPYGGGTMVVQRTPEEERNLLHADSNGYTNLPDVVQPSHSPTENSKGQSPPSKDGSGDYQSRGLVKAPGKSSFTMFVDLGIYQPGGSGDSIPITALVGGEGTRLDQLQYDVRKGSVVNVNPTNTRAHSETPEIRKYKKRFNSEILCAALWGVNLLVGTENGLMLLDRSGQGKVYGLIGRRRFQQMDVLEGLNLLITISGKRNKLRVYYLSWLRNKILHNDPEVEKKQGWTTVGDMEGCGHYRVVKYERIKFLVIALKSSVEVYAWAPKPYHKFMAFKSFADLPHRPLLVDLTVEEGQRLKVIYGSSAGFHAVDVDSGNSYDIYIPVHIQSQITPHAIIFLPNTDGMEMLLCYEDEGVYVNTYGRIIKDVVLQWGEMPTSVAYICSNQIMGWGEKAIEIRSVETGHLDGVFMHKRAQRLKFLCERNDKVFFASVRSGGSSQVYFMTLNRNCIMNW
# Summary of the method: as §1
# KDR/VEGFR2 = biological target: T8, KDR/VEGFR2 (Homo sapiens, UniProt P35968)
# T8 construct: purchased Reaction Biology Corp
# T8 sequence (P35968 20-1356): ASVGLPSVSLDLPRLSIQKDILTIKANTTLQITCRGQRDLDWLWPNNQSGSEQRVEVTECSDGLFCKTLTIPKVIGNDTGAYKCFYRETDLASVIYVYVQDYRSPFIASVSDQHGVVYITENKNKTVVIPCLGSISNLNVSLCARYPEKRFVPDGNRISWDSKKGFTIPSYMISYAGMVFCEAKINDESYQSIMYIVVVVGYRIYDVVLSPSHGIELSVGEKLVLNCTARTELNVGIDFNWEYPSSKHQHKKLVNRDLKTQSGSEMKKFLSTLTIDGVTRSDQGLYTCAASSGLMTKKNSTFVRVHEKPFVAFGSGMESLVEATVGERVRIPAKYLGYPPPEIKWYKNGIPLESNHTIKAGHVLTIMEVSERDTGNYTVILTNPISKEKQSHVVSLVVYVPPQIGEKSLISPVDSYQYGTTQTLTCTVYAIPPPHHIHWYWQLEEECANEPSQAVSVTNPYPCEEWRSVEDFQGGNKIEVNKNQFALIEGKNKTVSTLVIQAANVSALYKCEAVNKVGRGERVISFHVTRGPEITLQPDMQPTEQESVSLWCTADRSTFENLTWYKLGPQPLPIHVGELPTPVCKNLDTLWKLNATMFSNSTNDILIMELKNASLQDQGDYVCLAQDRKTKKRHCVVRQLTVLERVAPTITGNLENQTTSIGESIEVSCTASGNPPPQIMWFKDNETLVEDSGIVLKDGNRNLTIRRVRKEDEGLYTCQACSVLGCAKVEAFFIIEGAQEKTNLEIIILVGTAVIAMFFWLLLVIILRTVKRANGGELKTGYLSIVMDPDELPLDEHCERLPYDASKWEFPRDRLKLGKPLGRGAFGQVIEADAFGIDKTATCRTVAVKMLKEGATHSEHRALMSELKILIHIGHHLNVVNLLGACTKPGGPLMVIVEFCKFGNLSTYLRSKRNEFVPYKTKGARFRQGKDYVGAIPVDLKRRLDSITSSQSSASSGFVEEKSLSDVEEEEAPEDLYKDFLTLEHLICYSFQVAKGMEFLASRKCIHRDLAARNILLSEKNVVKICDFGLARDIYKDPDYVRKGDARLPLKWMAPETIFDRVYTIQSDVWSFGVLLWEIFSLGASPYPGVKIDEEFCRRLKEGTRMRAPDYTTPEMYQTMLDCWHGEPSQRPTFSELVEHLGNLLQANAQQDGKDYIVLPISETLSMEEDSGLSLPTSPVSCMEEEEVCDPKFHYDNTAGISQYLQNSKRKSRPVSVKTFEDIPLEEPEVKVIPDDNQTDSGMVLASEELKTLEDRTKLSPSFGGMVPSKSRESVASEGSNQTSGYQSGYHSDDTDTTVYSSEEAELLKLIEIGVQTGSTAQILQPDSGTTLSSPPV
# Summary of the method: as §1
# [1] = read-out: % Enzyme Activity (relative to DMSO controls) Run 1
# [2] = read-out: % Enzyme Activity (relative to DMSO controls) Run 2
# T1 sequence (Q92918 whole entry): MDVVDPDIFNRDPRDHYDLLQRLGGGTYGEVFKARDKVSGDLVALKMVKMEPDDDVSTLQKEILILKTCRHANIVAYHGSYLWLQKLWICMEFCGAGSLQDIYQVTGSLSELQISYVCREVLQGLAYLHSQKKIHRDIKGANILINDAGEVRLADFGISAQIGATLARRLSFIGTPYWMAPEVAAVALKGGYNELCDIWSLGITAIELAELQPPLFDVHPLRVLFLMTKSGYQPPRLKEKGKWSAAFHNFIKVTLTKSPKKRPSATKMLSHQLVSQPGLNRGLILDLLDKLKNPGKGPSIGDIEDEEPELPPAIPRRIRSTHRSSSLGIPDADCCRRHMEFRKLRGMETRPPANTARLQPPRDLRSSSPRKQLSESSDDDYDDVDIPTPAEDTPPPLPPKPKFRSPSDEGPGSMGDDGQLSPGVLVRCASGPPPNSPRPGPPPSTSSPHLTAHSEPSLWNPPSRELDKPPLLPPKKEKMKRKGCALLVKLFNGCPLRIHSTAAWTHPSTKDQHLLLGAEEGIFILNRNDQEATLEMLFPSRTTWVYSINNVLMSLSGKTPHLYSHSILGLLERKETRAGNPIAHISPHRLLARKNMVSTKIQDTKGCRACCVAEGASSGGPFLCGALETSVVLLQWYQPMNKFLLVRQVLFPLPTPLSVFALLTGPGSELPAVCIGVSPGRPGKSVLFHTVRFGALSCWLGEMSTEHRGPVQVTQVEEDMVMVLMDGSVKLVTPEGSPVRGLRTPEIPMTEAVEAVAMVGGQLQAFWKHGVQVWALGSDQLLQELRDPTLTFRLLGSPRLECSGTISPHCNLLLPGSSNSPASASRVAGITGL
smiles,measurement,setting,value
C=CC(=O)Nc1cccc(Nc2nc(Nc3ccc(OCCOC)c(F)c3)ncc2F)c1 [Compound 2],inhibition at 3 µM,HPK1/MAP4K1,12.9%
same,remaining activity at 3 µM,HPK1/MAP4K1; [1],85.8%
same,remaining activity at 3 µM,HPK1/MAP4K1; [2],88.4%
same,inhibition at 3 µM,GSK3b,-22.2%
same,remaining activity at 3 µM,GSK3b; [1],122%
same,remaining activity at 3 µM,GSK3b; [2],123%
same,inhibition at 3 µM,CDK4/cyclin D3,5.15%
same,remaining activity at 3 µM,CDK4/cyclin D3; [1],95.5%
same,remaining activity at 3 µM,CDK4/cyclin D3; [2],94.2%
same,inhibition at 3 µM,DLK/MAP3K12,22.8%
same,remaining activity at 3 µM,DLK/MAP3K12; [1],74.2%
same,remaining activity at 3 µM,DLK/MAP3K12; [2],80.2%
same,inhibition at 3 µM,STK32C/YANK3,-6.01%
same,remaining activity at 3 µM,STK32C/YANK3; [1],105%
same,remaining activity at 3 µM,STK32C/YANK3; [2],107%
same,inhibition at 3 µM,EPHB1,20.4%
same,remaining activity at 3 µM,EPHB1; [1],79.5%
same,remaining activity at 3 µM,EPHB1; [2],79.7%
same,inhibition at 3 µM,MINK/MINK1,0.9%
same,remaining activity at 3 µM,MINK/MINK1; [1],101%
same,remaining activity at 3 µM,MINK/MINK1; [2],97.5%
same,inhibition at 3 µM,KDR/VEGFR2,17.7%
same,remaining activity at 3 µM,KDR/VEGFR2; [1],83.3%
same,remaining activity at 3 µM,KDR/VEGFR2; [2],81.2%

# Reference: patent publication US9492471B2, “Methods of treating a disease or disorder associated with Bruton'S Tyrosine Kinase” (Celgene Avilomics Research, Inc., priority 2013, dated 2016)
